Measurements: ChEMBL document CHEMBL1649076, “Discovery of 5-chloro-N2-[(1S)-1-(5-fluoropyrimidin-2-yl)ethyl]-N4-(5-methyl-1H-pyrazol-3-yl)pyrimidine-2,4-diamine (AZD1480) as a novel inhibitor of the Jak/Stat pathway” (J Med Chem, 2011)
The source made the active and inactive calls. The rule behind the calls is not given here.

Legend:
SW-620 = experiment: Cell cycle arrest in human SW620 cells assessed as accumulation at G2/M phase at 3.3 uM after 24 hrs by flow cytometry; format: functional, cell-based
Mus musculus [1] = experiment: Antitumor activity against mouse BA/F3 cells expressing Tel-JAK2 xenografted in NCr mouse assessed as reduction of phosphorylated Stat5 level in spleen at 30 mg/kg, po after 12 hrs by Western blotting; format: functional, organism-based; parameters: dose 30 mg/kg; settings: BaF3
[2] = biological target: Signal transducer and activator of transcription 3 (Homo sapiens) (UniProt P40763); settings: HEL, 0.3 uM
Chain of Signal transducer and activator of transcription 3 (Homo sapiens) (P40763 whole entry): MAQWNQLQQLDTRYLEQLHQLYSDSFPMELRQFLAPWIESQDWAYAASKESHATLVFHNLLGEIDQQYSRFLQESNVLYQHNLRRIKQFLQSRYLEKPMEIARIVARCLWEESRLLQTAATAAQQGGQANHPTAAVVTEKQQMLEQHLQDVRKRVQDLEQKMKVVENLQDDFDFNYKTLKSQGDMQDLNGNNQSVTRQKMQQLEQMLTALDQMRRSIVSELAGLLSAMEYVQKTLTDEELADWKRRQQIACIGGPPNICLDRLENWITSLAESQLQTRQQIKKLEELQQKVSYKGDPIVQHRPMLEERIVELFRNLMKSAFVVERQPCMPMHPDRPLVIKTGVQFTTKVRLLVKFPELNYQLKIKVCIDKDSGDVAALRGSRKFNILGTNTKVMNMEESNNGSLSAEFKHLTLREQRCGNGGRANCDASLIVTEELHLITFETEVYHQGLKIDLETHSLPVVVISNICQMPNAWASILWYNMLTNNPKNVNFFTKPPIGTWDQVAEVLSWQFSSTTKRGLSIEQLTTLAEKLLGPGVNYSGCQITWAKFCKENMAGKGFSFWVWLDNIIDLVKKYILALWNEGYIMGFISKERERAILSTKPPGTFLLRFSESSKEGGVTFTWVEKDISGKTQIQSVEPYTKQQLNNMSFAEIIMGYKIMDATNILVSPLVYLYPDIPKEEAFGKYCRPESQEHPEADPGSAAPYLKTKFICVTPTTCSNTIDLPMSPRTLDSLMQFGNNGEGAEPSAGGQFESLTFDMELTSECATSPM
Description: Inhibition of Stat3 phosphorylation in human HEL cells at 0.3 uM after 5 mins by Western blotting

Mus musculus [3] = experiment: Antitumor activity against mouse BA/F3 cells expressing Tel-JAK2 xenografted in NCr mouse assessed as reduction of phosphorylated Stat5 level in spleen at 10 mg/kg, po after 12 hrs by Western blotting; format: functional, organism-based; parameters: dose 10 mg/kg; settings: BaF3
Mus musculus [4] = experiment: Antitumor activity against mouse BA/F3 cells expressing Tel-JAK2 xenografted in po dosed NCr mouse assessed as reduction of phosphorylated Stat5 level in spleen by Western blotting; format: functional, organism-based; settings: BaF3
BaF3 = experiment: Antitumor activity against mouse BA/F3 cells expressing Tel-JAK2-luc xenografted in NCr mouse assessed as reduction of bioluminescent signal at 50 mg/kg, po bid measured on day 9 post-tumor cell implantation relative to control; format: functional
[5] = biological target: T1, Signal transducer and activator of transcription 5A (Homo sapiens) (UniProt P42229); settings: HEL, 0.3 uM
T1 sequence (whole entry): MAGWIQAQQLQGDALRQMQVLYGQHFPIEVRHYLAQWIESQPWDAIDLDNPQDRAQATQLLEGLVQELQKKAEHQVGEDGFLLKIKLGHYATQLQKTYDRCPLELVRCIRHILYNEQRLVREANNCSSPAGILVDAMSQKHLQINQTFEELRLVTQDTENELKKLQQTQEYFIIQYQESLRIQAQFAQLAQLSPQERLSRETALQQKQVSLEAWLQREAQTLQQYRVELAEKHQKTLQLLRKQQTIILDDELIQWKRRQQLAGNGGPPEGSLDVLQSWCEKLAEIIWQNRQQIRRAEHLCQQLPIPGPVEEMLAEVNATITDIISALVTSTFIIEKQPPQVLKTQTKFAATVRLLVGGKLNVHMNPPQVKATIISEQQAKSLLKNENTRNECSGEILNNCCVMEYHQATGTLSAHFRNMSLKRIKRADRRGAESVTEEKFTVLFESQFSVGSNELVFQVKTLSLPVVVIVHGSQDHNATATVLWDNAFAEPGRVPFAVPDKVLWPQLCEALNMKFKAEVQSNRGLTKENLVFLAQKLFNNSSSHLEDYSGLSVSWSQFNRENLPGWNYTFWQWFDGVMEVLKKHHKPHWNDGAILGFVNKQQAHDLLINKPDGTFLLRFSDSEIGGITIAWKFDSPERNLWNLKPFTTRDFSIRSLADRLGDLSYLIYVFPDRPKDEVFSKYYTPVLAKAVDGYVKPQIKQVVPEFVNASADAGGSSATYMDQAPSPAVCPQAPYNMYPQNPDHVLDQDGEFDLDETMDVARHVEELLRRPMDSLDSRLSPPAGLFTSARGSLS
Description: Inhibition of Stat5 phosphorylation in human HEL cells at 0.3 uM after 5 mins by Western blotting

## Cc1cc(Nc2nc(N[C@@H](C)c3ncc(F)cn3)ncc2Cl)[nH]n1
SW-620
  Activity: Active
Mus musculus [1]
  Activity: Active
[2]
  inhibition: Active
Mus musculus [3]
  Activity: inactive
Mus musculus [4]
  Activity: Dose-dependent effect
BaF3
  Activity: Dose-dependent effect
[5]
  inhibition: Active
